Target: T1, hGPR119 (Homo sapiens, UniProt Q8TDV5)
T1 construct: expressed in transfected cells; host or cells: CHO
T1 sequence (Q8TDV5 1-335): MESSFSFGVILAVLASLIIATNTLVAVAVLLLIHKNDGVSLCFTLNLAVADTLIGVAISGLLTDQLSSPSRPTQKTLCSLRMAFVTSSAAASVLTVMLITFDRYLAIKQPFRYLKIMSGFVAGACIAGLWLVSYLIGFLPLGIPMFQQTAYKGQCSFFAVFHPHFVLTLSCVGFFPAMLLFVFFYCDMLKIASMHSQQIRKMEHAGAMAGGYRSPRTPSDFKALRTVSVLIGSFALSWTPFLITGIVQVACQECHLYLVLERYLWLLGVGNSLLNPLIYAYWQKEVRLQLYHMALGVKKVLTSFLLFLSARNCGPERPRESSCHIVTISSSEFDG
Assay: In vitro cyclic AMP assay (Cisbio dynamic 2 HTRF kit) in CHO-hGPR119 cells
Assay type: cell-based
Conditions: 1 h, cAMP, compound at 1 μM, 60 min, read-out: Induction (% induction at 1 μM)
Procedure: cAMP measurements were done using Cisbio dynamic 2 HTRF kit according to the manufacturer's protocol. Briefly, CHO-hGPR119 cells were plated at a cell density of 5000 cells/well/5 μl into a white small volume 384 well plate. The final concentrations of IBMX and DMSO used were 1 mM and 0.5% respectively. Cells were treated with various concentrations of the test compound for 60 min at room temperature. Cells were lysed by buffer containing Anti-cAMP antibody and d2-cAMP reagents and incubated for 1 hour at room temperature. HTRF was measured at 337 nm excitation and emission wavelengths of 665 nm and 620 nm on a microplate reader (Flurostar, BMG Labtech). Graphpad prism software was utilized for EC50 determinations.

Row | Compound | activation at 1 µM [%]
1 | CC(C)c1noc(N2CCC(C(C)Oc3nc4ccc(-c5cnc(Cl)nc5)nc4s3)CC2)n1 (centres unmarked) [Compound 1116, 5-(4-(1-((5-(2-chloropyrimidin-5-yl)thiazolo[5,4-b]pyridin-2-yl)oxy)ethyl)piperidin-1-yl)-3-isopropyl-1,2,4-oxadiazole] | 61
2 | CC(C)c1noc(N2CCC(C(C)Oc3nc4ccc(-c5cc[n+]([O-])cc5)nc4s3)CC2)n1 (centres unmarked) [Compound 1098, 4-(2-(1-(1-(3-isopropyl-1,2,4-oxadiazol-5-yl)piperidin-4-yl)ethoxy)thiazolo[5,4-b]pyridin-5-yl)pyridine 1-oxide] | 48
3 | CC(C)c1noc(N2CCC(C(Oc3nc4ccc(-c5ccnc(F)c5)nc4s3)C(F)(F)F)CC2)n1 (centres unmarked) [Compound 1103, 3-isopropyl-5-(4-(2,2,2-trifluoro-1-((5-(2-fluoropyridin-4-yl)thiazolo[5,4-b]pyridin-2-yl)oxy)ethyl)piperidin-1-yl)-1,2,4-oxadiazole] | 63
4 | CCc1cnc(N2CCC(C(C)Oc3nc4ccc(-c5ccc(S(C)(=O)=O)cc5)nc4s3)CC2)nc1 (centres unmarked) [Compound 1055, 2-(1-(1-(5-ethylpyrimidin-2-yl)piperidin-4-yl)ethoxy)-5-(4-(methylsulfonyl)phenyl)thiazolo[5,4-b]pyridine] | 76
5 | COCCS(=O)(=O)c1ccc(-c2ccc3nc(N4CCC(c5nc(C(C)C)no5)CC4)sc3n2)cc1 [Compound 1078, 3-isopropyl-5-(1-(5-(4-((2-methoxyethyl)sulfonyl)phenyl)thiazolo[5,4-b]pyridin-2-yl)piperidin-4-yl)-1,2,4-oxadiazole] | 24
6 | CC(=O)N(C)c1ncc(-c2ccc3nc(OC(C)C4CCN(c5nc(C(C)C)no5)CC4)sc3n2)cn1 (centres unmarked) [Compound 1139, N-(5-(2-(1-(1-(3-isopropyl-1,2,4-oxadiazol-5-yl)piperidin-4-yl)ethoxy)thiazolo[5,4-b]pyridin-5-yl)pyrimidin-2-yl)-N-methylacetamide] | 65
7 | CC(C)c1noc(C2CCN(c3nc4ccc(-c5ccc(S(C)(=O)=O)cc5)nc4s3)CC2)n1 [Compound 1004, 3-isopropyl-5-(1-(5-(4-(methylsulfonyl)phenyl)thiazolo[5,4-b]pyridin-2-yl)piperidin-4-yl)-1,2,4-oxadiazole] | 45
8 | CNS(=O)(=O)c1ccc(-c2ccc3nc(N4CCC(c5nc(C(C)C)no5)CC4)sc3n2)cc1 [Compound 1072, 4-(2-(4-(3-isopropyl-1,2,4-oxadiazol-5-yl)piperidin-1-yl)thiazolo[5,4-b]pyridin-5-yl)-N-methylbenzenesulfonamide] | 17
9 | CCc1cnc(N2CCC(C(C)Oc3nc4ccc(-c5ccncc5)nc4s3)CC2)nc1 (centres unmarked) [Compound 1149, 2-(1-(1-(5-ethylpyrimidin-2-yl)piperidin-4-yl)ethoxy)-5-(pyridin-4-yl)thiazolo[5,4-b]pyridine] | 64
10 | CCc1noc(N2CCC([C@H](C)Oc3nc4ccc(-c5ccc(S(C)(=O)=O)nc5)nc4s3)CC2)n1 [Compound 1160, 2-((S)-1-(1-(3-ethyl-1,2,4-oxadiazol-5-yl)piperidin-4-yl)ethoxy)-5-(6-(methylsulfonyl)pyridin-3-yl)thiazolo[5,4-b]pyridine] | 76
11 | CC(Oc1nc2ccc(-c3ccc(S(C)(=O)=O)nc3)nc2s1)C1CCN(c2ncc(C(F)(F)F)cn2)CC1 (centres unmarked) [Compound 1159, 2-(1-(1-(5-(trifluoromethyl)pyrimidin-2-yl)piperidin-4-yl)ethoxy)-5-(6-(methylsulfonyl)pyridin-3-yl)thiazolo[5,4-b]pyridine] | 70
12 | Cc1cc2nc(OC(C)C3CCN(c4nc(C(C)C)no4)CC3)sc2nc1-c1ccc(S(C)(=O)=O)cc1 (centres unmarked) [Compound 1039, 3-isopropyl-5-(4-(1-((6-methyl-5-(4-(methylsulfonyl)phenyl)thiazolo[5,4-b]pyridin-2-yl)oxy)ethyl)piperidin-1-yl)-1,2,4-oxadiazole] | 20
13 | CC(C)c1noc(C2CCN(c3nc4ccc(Nc5ccc(S(C)(=O)=O)c(F)c5)nc4s3)CC2)n1 [Compound 1025, N-(3-fluoro-4-(methylsulfonyl)phenyl)-2-(4-(3-isopropyl-1,2,4-oxadiazol-5-yl)piperidin-1-yl)thiazolo[5,4-b]pyridin-5-amine] | 12
14 | CCCc1cnc(N2CCC([C@@H](C)Oc3nc4ccc(-c5ccc(S(C)(=O)=O)cc5)nc4s3)CC2)nc1 [Compound 1090, (R)-5-(4-(methylsulfonyl)phenyl)-2-(1-(1-(5-propylpyrimidin-2-yl)piperidin-4-yl)ethoxy)thiazolo[5,4-b]pyridine] | 54
15 | CC(C)c1noc(N2CCC(C(C)Oc3nc4ccc(-c5ccnc(Cl)c5)nc4s3)CC2)n1 (centres unmarked) [Compound 1132, 2-(1-(1-(3-isopropyl-1,2,4-oxadiazol-5-yl)piperidin-4-yl)ethoxy)-5-(2-chloropyridin-4-yl)thiazolo[5,4-b]pyridine] | 38
16 | CC(C)OC(=O)N1CC=C(CCOc2nc3ccc(-c4ccc(S(C)(=O)=O)cc4)nc3s2)CC1 [Compound 1034, isopropyl 4-(2-((5-(4-(methylsulfonyl)phenyl)thiazolo[5,4-b]pyridin-2-yl)oxy)ethyl)-5,6-dihydropyridine-1(2H)-carboxylate] | 0.3
17 | Cc1cc(-c2ccc(S(C)(=O)=O)cc2)nc2sc(OC(C)C3CCN(c4nc(C(C)C)no4)CC3)nc12 (centres unmarked) [Compound 1037, 3-isopropyl-5-(4-(1-((7-methyl-5-(4-(methylsulfonyl)phenyl)thiazolo[5,4-b]pyridin-2-yl)oxy)ethyl)piperidin-1-yl)-1,2,4-oxadiazole] | 18
18 | CC(CC1CCN(c2nc(C(C)C)no2)CC1)Oc1nc2ccc(-c3ccc(S(C)(=O)=O)cc3)nc2s1 (centres unmarked) [Compound 1043, 3-isopropyl-5-(4-(2-((5-(4-(methylsulfonyl)phenyl)thiazolo[5,4-b]pyridin-2-yl)oxy)propyl)piperidin-1-yl)-1,2,4-oxadiazole] | 4
19 | CC(Oc1nc2ccc(-c3ccc(S(C)(=O)=O)cc3)nc2s1)C1CCN(c2cnc(Cl)cn2)CC1 (centres unmarked) [Compound 1148, 2-(1-(1-(5-chloropyrazin-2-yl)piperidin-4-yl)ethoxy)-5-(4-(methylsulfonyl)phenyl)thiazolo[5,4-b]pyridine] | 70
20 | Cc1ccc(S(=O)(=O)N2CC=C(c3nc4ccc(-c5ccc(S(C)(=O)=O)cc5)nc4s3)CC2)cc1 [Compound 1026, 5-(4-(methylsulfonyl)phenyl)-2-(1-tosyl-1,2,3,6-tetrahydropyridin-4-yl)thiazolo[5,4-b]pyridine] | 5
21 | CC(C)c1noc(N2CCC(Oc3nc4ccc(-c5ccc(S(C)(=O)=O)cc5)nc4s3)CC2)n1 [Compound 1007, 3-isopropyl-5-(4-((5-(4-(methylsulfonyl)phenyl)thiazolo[5,4-b]pyridin-2-yl)oxy)piperidin-1-yl)-1,2,4-oxadiazole] | 39
22 | Cc1cc(S(C)(=O)=O)ccc1-c1ccc2nc(O[C@H](C)C3CCN(c4nc(C(C)C)no4)CC3)sc2n1 [Compound 1169, 2-((R)-1-(1-(3-isopropyl-1,2,4-oxadiazol-5-yl)piperidin-4-yl)ethoxy)-5-(2-methyl-4-(methylsulfonyl)phenyl)thiazolo[5,4-b]pyridine] | 43

Same assay, conditions: cAMP

Row | Compound | EC50 [µM]
23 | CCc1noc(N2CCC([C@H](C)Oc3nc4ccc(-c5ccc(S(C)(=O)=O)nc5)nc4s3)CC2)n1 [Compound 1160, 2-((S)-1-(1-(3-ethyl-1,2,4-oxadiazol-5-yl)piperidin-4-yl)ethoxy)-5-(6-(methylsulfonyl)pyridin-3-yl)thiazolo[5,4-b]pyridine] | 0.025 to 0.05

— US10526345B2, “Compounds as GPR119 agonists” (Mankind Pharma Ltd., priority 2016, dated 2020)
